Results from patent US20140309109A1, “N-Thio-anthranilamide compounds and their use as pesticides” (BASF SE, priority 2011, published 2014).

Experiments:
Assay type in all cases: in vivo
[1] = tested on: Boll Weevil (Anthonomus grandis); experiment: Boll weevil insect diet microtiter test; settings: 120 h, 5 days, eggs on sprayed insect diet, read-out: mortality (egg and larval) in comparison with untreated controls
Experimental: B.8 Boll Weevil (Anthonomus grandis)
For evaluating control of boll weevil (Anthonomus grandis) the test unit consisted of 24-well-microtiter plates containing an insect diet and 20-30 A. grandis eggs.
The compounds were formulated using a solution containing 75% v/v water and 25% v/v DMSO. Different concentrations of formulated compounds were sprayed onto the insect diet at 20 μl, using a custom built micro atomizer, at two replications.
After application, microtiter plates were incubated at about 23±1° C. and about 50±5% relative humidity for 5 days. Egg and larval mortality was then visually assessed.

[2] = tested on: Tobacco Budworm (Heliothis virescens); experiment: Tobacco budworm I (B.7b) cotton plant spray test; settings: 96 h, 4 days after treatment, larvae on sprayed cotton plants (B.7b), read-out: mortality in comparison with untreated controls
Experimental: B.7b Tobacco Budworm (Heliothis virescens) I
(§1) The active compounds were formulated in cyclohexanone as a 10,000 ppm solution supplied in tubes. The tubes were inserted into an automated electrostatic sprayer equipped with an atomizing nozzle and they served as stock solutions for which lower dilutions were made in 50% acetone:50% water (v/v). A nonionic surfactant (Kinetic®) was included in the solution at a volume of 0.01% (v/v).
(§2) Cotton plants were grown 2 plants to a pot and selected for treatment at the cotyledon stage. Test solutions were sprayed onto the foliage by an automated electrostatic plant sprayer equipped with an atomizing spray nozzle. The plants were dried in the sprayer fume hood and then removed from the sprayer. Each pot was placed into perforated plastic bags with a zip closure. About 10 to 11 budworm larvae were placed into the bag and the bags zipped closed. Test plants were maintained in a growth room at about 25° C. and about 20-40% relative humidity for 4 days, avoiding direct exposure to fluorescent light (24 hour photoperiod) to prevent trapping of heat inside the bags. Mortality and reduced feeding were assessed 4 days after treatment, compared to untreated control plants.

[3] = tested on: Orchid Thrips (Dichromothrips corbetti); experiment: Orchid thrips floral-immersion test; settings: 72 hours after treatment, adult thrips on dipped orchid flowers, read-out: mortality in comparison with untreated controls
Experimental: B.3 Orchid Thrips (Dichromothrips corbetti)
Dichromothrips corbetti adults used for bioassay were obtained from a colony maintained continuously under laboratory conditions. For testing purposes, the test compound is diluted in a 1:1 mixture of acetone:water (vol:vol), plus 0.01% vol/vol Alkamuls® EL 620 surfactant.
Thrips potency of each compound was evaluated by using a floral-immersion technique. Plastic petri dishes were used as test arenas. All petals of individual, intact orchid flowers were dipped into treatment solution and allowed to dry. Treated flowers were placed into individual petri dishes along with about 20 adult thrips. The petri dishes were then covered with lids. All test arenas were held under continuous light and a temperature of about 28° C. for duration of the assay. After 3 days, the numbers of live thrips were counted on each flower, and along inner walls of each petri dish. The percent mortality was recorded 72 hours after treatment.

[4] = tested on: Cowpea Aphid (Aphis craccivora); experiment: Cowpea aphid spray test on potted cowpea plants; settings: assessed after 72 hours, sprayed cowpea plants, read-out: mortality in comparison with untreated controls
Experimental: B.1 Cowpea Aphid (Aphis craccivora)
The active compound is dissolved at the desired concentration in a mixture of 1:1 (vol:vol) distilled water:acetone. Surfactant (Alkamuls® EL 620) is added at a rate of 0.1% (vol/vol). The test solution is prepared at the day of use.
Potted cowpea plants were colonized with approximately 50-100 aphids of various stages by manually transferring a leaf tissue cut from infested plant 24 hours before application. Plants were sprayed after the pest population has been recorded. Treated plants are maintained on light carts at about 28° C. Percent mortality was assessed after 72 hours

[5] = tested on: Diamond Back Moth (Plutella xylostella); experiment: Diamond back moth cabbage leaf dip test; settings: foliar, 72 hours after treatment, 3rd instar larvae on dipped cabbage leaves, read-out: mortality in comparison with untreated controls
Experimental: B.2 Diamond Back Moth (Plutella xylostella)
The active compound is dissolved at the desired concentration in a mixture of 1:1 (vol:vol) distilled water:aceteone. Surfactant (Alkamuls® EL 620) is added at a rate of 0.1% (vol/vol).The test solution is prepared at the day of use.
Leaves of cabbage were dipped in test solution and air-dried. Treated leaves were placed in petri dish eslined with moist filter paper and inoculated with ten 3rd instar larvae. Mortality was recorded 72 hours after treatment. Feeding damages were also recorded using a scale of 0-100%.

[6] = tested on: Colorado Potato Beetle (Leptinotarsa decemlineata); experiment: Colorado potato beetle eggplant foliage spray test; settings: foliar, 96 h, 4 days after treatment, larvae on sprayed eggplant foliage, read-out: mortality in comparison with untreated controls
Experimental: B.9 Colorado Potato Beetle (Leptinotarsa decemlineata)
as §1
Eggplants were grown 2 plants to a pot and were selected for treatment at the 1st true leaf stage. Test solutions were sprayed onto the foliage by an automated electrostatic plant sprayer equipped with an atomizing spray nozzle. The plants were dried in the sprayer fume hood and then removed from the sprayer. The treated foliage was then cut and removed from the pot and placed in a Petri dish lined with moistened filter pa-per. Five beetle larvae were introduced into each Petri dish and the dish was covered by a Petri dish lid. Petri dishes were maintained in a growth room at about 25° C. and about 20-40% relative humidity for 4 days, avoiding direct exposure to fluorescent light (24 hour photoperiod) to prevent trapping of heat inside the dishes. Mortality and reduced feeding were assessed 4 days after treatment, compared to untreated control plants.

[7] = tested on: Tobacco Budworm (Heliothis virescens); experiment: Tobacco budworm I (B.7a) cotton plant spray test; settings: 96 h, 4 days after treatment, larvae on sprayed cotton plants (B.7a), read-out: mortality in comparison with untreated controls
Experimental: B.7a Tobacco Budworm (Heliothis virescens) I
as §1, §2

[8] = tested on: Vetch Aphid (Megoura viciae); experiment: Vetch aphid broad bean leaf disk microtiter test; settings: foliar, 120 h, 5 days, adult aphids on sprayed broad bean leaf disks, read-out: mortality in comparison with untreated controls
Experimental: B.6 Vetch Aphid (Megoura viciae)
For evaluating control of vetch aphid (Megoura viciae) through contact or systemic means the test unit consisted of 24-well-microtiter plates containing broad bean leaf disks.
The compounds were formulated using a solution containing 75% v/v water and 25% v/v DMSO. Different concentrations of formulated compounds were sprayed onto the leaf disks at 2.5 μl, using a custom built micro atomizer, at two replications.
After application, the leaf disks were air-dried and 5-8 adult aphids placed on the leaf disks inside the microtiter plate wells. The aphids were then allowed to suck on the treated leaf disks and incubated at about 23±1° C. and about 50±5% relative humidity for 5 days. Aphid mortality and fecundity was then visually assessed.

[9] = tested on: Southern Armyworm (Spodoptera eridania); experiment: Southern armyworm lima bean foliar spray test; settings: 96 h, 4 days after treatment, larvae on sprayed lima bean plants, read-out: mortality in comparison with untreated controls
Experimental: B.5 Southern Armyworm (Spodoptera eridania)
as §1
Lima bean plants (variety Sieva) were grown 2 plants to a pot and selected for treatment at the 1st true leaf stage. Test solutions were sprayed onto the foliage by an automated electrostatic plant sprayer equipped with an atomizing spray nozzle. The plants were dried in the sprayer fume hood and then removed from the sprayer. Each pot was placed into perforated plastic bags with a zip closure. About 10 to 11 armyworm larvae were placed into the bag and the bags zipped closed. Test plants were maintained in a growth room at about 25° C. and about 20-40% relative humidity for 4 days, avoiding direct exposure to fluorescent light (24 hour photoperiod) to prevent trapping of heat inside the bags. Mortality and reduced feeding were assessed 4 days after treatment, compared to untreated control plants.

CCS(CC1CC1)=NC(=O)c1cc(Cl)cc(C)c1NC(=O)c1cc(C(F)(F)F)nn1-c1ncccc1Cl (stereo not drawn) [Compound 1, 2-(3-chloro-2-pyridyl)-N-[2-methyl-4-chloro-6-[(cyclopropylmethyl-ethyl-λ^4-sulfanylidene)carbamoyl]phenyl]-5-(trifluoromethyl)pyrazole-3-carboxamide]
≥ 75%: mortality at 2500 ppm [1] | mortality at 10 ppm [2] | mortality at 300 ppm [3] | mortality at 300 ppm [4] | mortality at 300 ppm [5] | mortality at 10 ppm [6] | mortality at 2500 ppm [7] | mortality at 2500 ppm [8] | mortality at 1 ppm [9]
